These results are taken from US8987195B2 (priority 2012, dated 2015).

One assay concerns HCV genotype 1b replicon. Briefly: HCV replicon assay, genotype 1b replicon EC50. It counts as cell-based, Hepatitis C virus. The following applies: Hepatitis C virus, HCV replicon, genotype 1b, read-out: EC50 [gt-1b]. The method, boiled down:
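Replicon cells (Neo^r, some luciferase:Neo^r fusion); G418 removed at plating; compound dilution series, 24-48 h. Readout: RNA by 32P-probe hybridization/protection or TaqMan, normalized to cyclophilin A RNA, or luciferase. EC50 vs DMSO control, 4-parameter fit.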

The target in assay [1] is HCV NS3/4A protease genotype 1b (Hepatitis C virus genotype 1b, UniProt P26663). Briefly: HCV NS3/4A protease time-resolved fluorescence (TRF) assay, Ki against genotype 1b. Type of assay: biochemical. The following applies: IC50 [gt-1b], NS3/4A protease TRF assay, genotype 1b enzyme 0.2 nM. The method, boiled down:
(§1)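 NS3/4A enzyme was preincubated 30 min with inhibitor in 50 mM HEPES pH 7.5, 150 mM NaCl, 15% glycerol, 0.15% Triton X-100, 10 mM DTT, 0.1% PEG 8000; 25 nM europium TRF peptide substrate added, 2.5 h at room temperature. Enzyme: 0.2 nM (1b), 0.4 nM (A156T), 0.025 nM (3a). Ki from IC50 via Cheng-Prusoff.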

The target in assay [2] is HCV NS3/4A protease A156T mutant (Hepatitis C virus genotype 1b, UniProt P26663, A1182T). Briefly: HCV NS3/4A protease time-resolved fluorescence (TRF) assay, Ki against A156T mutant. Type of assay: biochemical. The following applies: NS3/4A protease TRF assay, A156T mutant enzyme 0.4 nM, read-out: IC50 [gt-1b A156T]. The method in brief:
as §1

Assay [3] concerns the target HCV NS3/4A protease genotype 3a (Hepatitis C virus genotype 3a, UniProt Q81495). Briefly: HCV NS3/4A protease time-resolved fluorescence (TRF) assay, Ki against genotype 3a. It counts as biochemical. As for the experimental part: Measuring NS3/4A Inhibitory Activity (Ki) Against Genotype 1b, Against A156T Mutants and Against Genotype 3a
One assay for measuring inhibitory activity is HCV NS3 protease time-resolved fluorescence (TRF) assay as described below and in Mao et al., Anal. Biochem. 373:1-8, 2008 and International Patent Application Publication WO 2006/102087. A NS3 protease assay can be performed, for example, in a final volume of 20 μl assay buffer containing 50 mM HEPES, pH 7.5, 150 mM NaCl, 15% glycerol, 0.15% TRITON X-100, 10 mM DTT, and 0.1% PEG 8000. NS3 and NS4A protease is pre-incubated with various concentrations of inhibitors in DMSO for 30 min. The reaction is initiated by adding the TRF peptide substrate (final concentration 25 nM). NS3 mediated hydrolysis of the substrate was run for 2.5 hours at room temperature. Product fluorescence is detected using A Pherastar Plus plate reader (BMG) or Envision (Perkin Elmer Life and Analytical Sciences with excitation at 340 nm and emission at 615 nm using the appropriate delay time optimized for the europium fluorescence probe. Testing concentrations of different enzyme forms are selected to result in a signal to background ratio (S/B) of 10-30. IC50 values are derived using a standard four-parameter fit to the data. Ki values are derived from IC50 values using the following formula, IC50=Ki(1+[S]/KM), Eqn (1), where [S] is the concentration of substrate peptide in the reaction and KM is the Michaelis constant. See P. Gallinari et al., 38 BIOCHEM. 5620-32 (1999); P. Gallinari et al., 72 J. VIROL. 6758-69 (1998); M. Taliani et al., 240 ANAL. BIOCHEM. 60-67 (1996); Mao et al., Analytical Biochemistry 373: 1-8, 2008.
The assay described above was run against genotype 1b at a concentration of 0.2 nM, against A156T mutant strains at a concentration of 0.4 nM, and against genotype 3a at a concentration of 0.025 nM.

Like-named read-outs stand apart in the source and are kept apart here.

As for `COc1ccc2nc(C)c3c(c2c1)[C@H](F)C[C@]1(C[C@H]2C(=O)N[C@]4(C(=O)NS(=O)(=O)C5(C)CC5)C[C@H]4/C=C\CCCCC[C@H](NC(=O)OCC(C)(C)F)C(=O)N2C1)O3` [Example 370, 2-fluoro-2-methylpropyl [(1′R,2S,6S,12Z,13aS,14aR,16aS)-1′-fluoro-9′-methoxy-5′-methyl-14a-{[(1-methylcyclopropyl)sulfonyl]carbamoyl}-5,16-dioxo-1,1′,2′,5,6,7,8,9,10,11,13a,14,14a,15,16,16a-hexadecahydrospiro[cyclopropa[e]pyrrolo[1,2-a][1,4]diazacyclopentadecine-2,3′-pyrano[2,3-c]quinolin]-6-yl]carbamate], the EC50 with HCV genotype 1b replicon (K+ salt) amounted to 8.56 nM. The IC50 in assay [1] (K+ salt) is 0.009 nM; in assay [2] (K+ salt) it was 0.037 nM; in assay [3] it was 0.149 nM.

`COc1ccc2nc(C(F)(F)F)c3c(c2c1)CC[C@]1(C[C@H]2C(=O)N[C@]4(C(=O)NS(=O)(=O)C5(C)CC5)C[C@H]4/C=C\CCCCC[C@H](NC(=O)OCC(C)(C)C)C(=O)N2C1)O3` [Example 382, 2,2-dimethylpropyl [(2R,6S,12Z,13aS,14aR,16aS)-9′-methoxy-14a-{[(1-methylcyclopropyl)sulfonyl]carbamoyl}-5,16-dioxo-5′-(trifluoromethyl)-1,1′,2′,5,6,7,8,9,10,11,13a,14,14a,15,16,16a-hexadecahydrospiro[cyclopropa[e]pyrrolo[1,2-a][1,4]diazacyclopentadecine-2,3′-pyrano[2,3-c]quinolin]-6-yl]carbamate]: in the assay on HCV genotype 1b replicon (K+ salt), the EC50 was found to be 3.61 nM. In addition, the IC50 in assay [1] (K+ salt) is 0.028 nM; in assay [2] (K+ salt), 2.34 nM; in assay [3] it was 1.09 nM.

As for `COc1ccc2nc(C(F)(F)F)c3c(c2c1)CC[C@]1(C[C@H]2C(=O)N[C@]4(C(=O)NS(=O)(=O)C5(C)CC5)C[C@H]4/C=C\CCCCC[C@H](NC(=O)OC4(C)CCC4)C(=O)N2C1)O3` [Example 451, 1-methylcyclobutyl [(2R,6S,12Z,13aS,14aR,16aS)-9′-methoxy-14a-{[(1-methylcyclopropyl)sulfonyl]carbamoyl}-5,16-dioxo-5′-(trifluoromethyl)-1,1′,2′,5,6,7,8,9,10,11,13a,14,14a,15,16,16a-hexadecahydrospiro[cyclopropa[e]pyrrolo[1,2-a][1,4]diazacyclopentadecine-2,3′-pyrano[2,3-c]quinolin]-6-yl]carbamate], in the assay on HCV genotype 1b replicon, the EC50 was determined as 1.86 nM. The IC50 stood at 0.006 nM in assay [1], 0.338 nM in assay [2] and 0.504 nM in assay [3].

In the case of `CC[C@@H](C)OC(=O)N[C@H]1CCCCC/C=C\[C@@H]2C[C@@]2(C(=O)NS(=O)(=O)C2(C)CC2)NC(=O)[C@@H]2C[C@]3(CCc4c(c(C(F)(F)F)nc5ccc(OC)cc45)O3)CN2C1=O` [Example 459, (2R)-butan-2-yl [(2R,6S,12Z,13aS,14aR,16aS)-9′-methoxy-14a-{[(1-methylcyclopropyl)sulfonyl]carbamoyl}-5,16-dioxo-5′-(trifluoromethyl)-1,1′,2′,5,6,7,8,9,10,11,13a,14,14a,15,16,16a-hexadecahydrospiro[cyclopropa[e]pyrrolo[1,2-a][1,4]diazacyclopentadecine-2,3′-pyrano[2,3-c]quinolin]-6-yl]carbamate], the EC50 with HCV genotype 1b replicon (K+ salt) amounted to 4.4 nM. Moreover, the IC50 in assay [1] (K+ salt) was determined as 0.049 nM; in assay [2] (K+ salt), 2.65 nM; in assay [3], 2.31 nM.

As to `CC[C@H](C)OC(=O)N[C@H]1CCCCC/C=C\[C@@H]2C[C@@]2(C(=O)NS(=O)(=O)C2(C)CC2)NC(=O)[C@@H]2C[C@]3(CCc4c(c(C(F)(F)F)nc5ccc(OC)cc45)O3)CN2C1=O` [Example 460, (2S)-butan-2-yl [(2R,6S,12Z,13aS,14aR,16aS)-9′-methoxy-14a-{[(1-methylcyclopropyl)sulfonyl]carbamoyl}-5,16-dioxo-5′-(trifluoromethyl)-1,1′,2′,5,6,7,8,9,10,11,13a,14,14a,15,16,16a-hexadecahydrospiro[cyclopropa[e]pyrrolo[1,2-a][1,4]diazacyclopentadecine-2,3′-pyrano[2,3-c]quinolin]-6-yl]carbamate], the EC50 with HCV genotype 1b replicon (K+ salt) stood at 2.99 nM. Besides, the IC50 in assay [1] (K+ salt) stood at 0.034 nM; in assay [2] (K+ salt), 2.74 nM; in assay [3], 1.78 nM.

For `COc1ccc2nc(C(F)(F)F)c3c(c2c1)[C@H](F)C[C@]1(C[C@H]2C(=O)N[C@]4(C(=O)NS(=O)(=O)C5(C)CC5)C[C@H]4/C=C\CCCCC[C@H](NC(=O)OCC(C)C)C(=O)N2C1)O3` [Example 461, 2-methylpropyl [(1′R,2S,6S,12Z,13aS,14aR,16aS)-1′-fluoro-9′-methoxy-14a-{[(1-methylcyclopropyl)sulfonyl]carbamoyl}-5,16-dioxo-5′-(trifluoromethyl)-1,1′,2′,5,6,7,8,9,10,11,13a,14,14a,15,16,16a-hexadecahydrospiro[cyclopropa[e]pyrrolo[1,2-a][1,4]diazacyclopentadecine-2,3′-pyrano[2,3-c]quinolin]-6-yl]carbamate], the EC50 in the assay with HCV genotype 1b replicon stood at 3.29 nM. Also, the IC50 in assay [1] was 0.029 nM; in assay [2], 0.435 nM; in assay [3], 0.624 nM.

For `COc1ccc2nc(C(F)(F)F)c3c(c2c1)CC[C@]1(C[C@H]2C(=O)N[C@]4(C(=O)NS(=O)(=O)C5(C)CC5)C[C@H]4/C=C\CCCCC[C@H](NC(=O)OC4CCOC4)C(=O)N2C1)O3` (stereo partly drawn) [Example 481, tetrahydrofuran-3-yl [(2R,6S,12Z,13aS,14aR,16aS)-9′-methoxy-14a-{[(1-methylcyclopropyl)sulfonyl]carbamoyl}-5,16-dioxo-5′-(trifluoromethyl)-1,1′,2′,5,6,7,8,9,10,11,13a,14,14a,15,16,16a-hexadecahydrospiro[cyclopropa[e]pyrrolo[1,2-a][1,4]diazacyclopentadecine-2,3′-pyrano[2,3-c]quinolin]-6-yl]carbamate], in the assay on HCV genotype 1b replicon (K+ salt), the EC50 came to 1.31 nM. Moreover, the IC50 in assay [1] (K+ salt) is 0.006 nM; in assay [2] (K+ salt), 0.436 nM; in assay [3], 0.225 nM.

Regarding `CCc1nc2ccc(OC)cc2c2c1O[C@]1(CC2)C[C@H]2C(=O)N[C@]3(C(=O)NS(=O)(=O)C4(C)CC4)C[C@H]3/C=C\CCCCC[C@H](NC(=O)c3cn[nH]c3)C(=O)N2C1` [Example 482, (2R,6S,12Z,13aS,14aR,16aS)-5′-ethyl-9′-methoxy-N-[(1-methylcyclopropyl)sulfonyl]-5,16-dioxo-6-[(1H-pyrazol-4-ylcarbonyl)amino]-1,1′,2′,6,7,8,9,10,11,13a,14,15,16,16a-tetradecahydrospiro[cyclopropa[e]pyrrolo[1,2-a][1,4]diazacyclopentadecine-2,3′-pyrano[2,3-c]quinoline]-14a(5H)-carboxamide], the EC50 in the assay on HCV genotype 1b replicon came out at 68.6 nM. Further, the IC50 came out at 0.008 nM in assay [1], 0.101 nM in assay [2] and 0.418 nM in assay [3].

Consider `CCc1nc2ccc(OC)cc2c2c1O[C@]1(CC2)C[C@H]2C(=O)N[C@]3(C(=O)NS(=O)(=O)C4(C)CC4)C[C@H]3/C=C\CCCCC[C@H](NC(=O)c3cc(C)cs3)C(=O)N2C1` [Example 483, (2R,6S,12Z,13aS,14aR,16aS)-5′-ethyl-9′-methoxy-N-[(1-methylcyclopropyl)sulfonyl]-6-{[(4-methylthiophen-2-yl)carbonyl]amino}-5,16-dioxo-1,1′,2′,6,7,8,9,10,11,13a,14,15,16,16a-tetradecahydrospiro[cyclopropa[e]pyrrolo[1,2-a][1,4]diazacyclopentadecine-2,3′-pyrano[2,3-c]quinoline]-14a(5H)-carboxamide], for which, in the assay with HCV genotype 1b replicon, the EC50 came out at 0.438 nM. Moreover, the IC50 was determined as 0.008 nM in assay [1], 0.0969 nM in assay [2] and 0.667 nM in assay [3].

Broadly, the EC50 is the concentration at which the effect is half-maximal. By IC50 is commonly meant the concentration that inhibits the measured activity by half.
